# From ChEMBL document CHEMBL1133156, “Macrocarpins A-D, new cytotoxic nor-triterpenes from Maytenus macrocarpa” (Bioorg Med Chem Lett, 2000)
# Values joined by “and” are separate entries in the source; they are usually repeats but may differ in a detail not shown here. Equal entries are not always repeated.
# Legend:
# [1] = system: SK-MEL-28; test: Compound was tested for cytotoxic activity against SK-MEL-28 human melanoma (ATCC:HTB-72); format: functional, cell-based
# [2] = system: P388; test: Compound was tested for cytotoxic activity against P-388D1 mouse lymphoma (ATCC: CCL-46); format: functional, cell-based
# [3] = system: A549; test: Compound was tested for cytotoxic activity against A-549 human lung carcinoma (ATCC:CCL-185); format: functional, cell-based
# [4] = species: Homo sapiens; test: (§1) Compound was tested for cytotoxic activity against […] human colon carcinoma (ATCC:HTB-38); format: functional
# [5] = system: P388; test: Compound was tested for cytotoxic activity against P-388D1 mouse lymphoma (ATCC:CCL-46); format: functional, cell-based
# [6] = system: HT-29; test: as §1; format: functional, cell-based
Structure (SMILES),IC50 [1],IC50 [2] [µM],IC50 [3],IC50 [4] [µM],IC50 [5] [mg/L],IC50 [6]
COC(=O)[C@]1(C)CC[C@]2(C)CC[C@]3(C)C4CC(=O)c5c(cc(O)c(O)c5C=O)[C@]4(C)CC[C@@]3(C)C2C1 (stereo partly specified),0.5 µg/mL and 1 µM,1,0.5 µg/mL and 1 µM,2,0.5,1 mg/L
COC(=O)[C@]1(C)CC[C@]2(C)CC[C@]3(C)C4CC(=O)c5c(cc(OC(C)=O)c(OC(C)=O)c5C=O)[C@]4(C)CC[C@@]3(C)C2C1 (stereo partly specified),0.25 µg/mL and 400 nM,0.4,0.25 µg/mL and 400 nM,,0.25,0.25 µg/mL and 400 nM
"C[C@@H]1CC2[C@]3(C)CCC4(C)C(=CC(=O)c5c4cc(O)c(O)c5C(=O)O)[C@@]3(C)CC[C@@]2(C)[C@H](O)C1=O (single isomer, unassigned)",2.5 µg/mL and 5.2 µM,5.2,2.5 µg/mL and 5.2 µM,,2.5,2.5 µg/mL and 5.2 µM
"COc1c(O)cc2c(c1C(=O)O)C(=O)C=C1C2(C)CC[C@@]2(C)C3C[C@@H](C)C(=O)[C@@H](O)[C@]3(C)CC[C@]12C (single isomer, unassigned)",10 µg/mL and 20.7 µM,20.7,10 µg/mL and 20.7 µM,,10,10 µg/mL and 20.7 µM
"CC1=C(O)C(=O)C=C2C1=CC(O)[C@H]1[C@@]2(C)CC[C@@]2(C)C3C[C@@H](C)C(=O)[C@@H](O)[C@]3(C)CC[C@]12C (single isomer, unassigned)",1 µg/mL and 2 µM,1,1 µg/mL and 2 µM,,0.5,1 µg/mL and 2 µM
